The numbers were not newly measured in PMC8198792, “Prediction of Anticancer Peptides with High Efficacy and Low Toxicity by Hybrid Model Based on 3D Structure of Peptides” (International Journal of Molecular Sciences, 2021), which cites them from elsewhere.

Where two headings read alike, the source gives them in different places.

This data set relates to cancer cell lines. Also noted: method as in 6 sources, ref CancerPPD [45] and SATPdb ||| ref CancerPPD/SATPdb ||| ref CancerPPD, SATPdb, Swissprot (PDB) ||| ref CancerPPD/SATPdb/Swissprot(PDB) ||| ref CancerPPD / SATPdb ||| ... The conditions noted are these: cited from earlier work. From the text:
Supplement ijms-22-05630-s001.zip/ACPs(seguence).xlsx, sheet "D1" | column: Activity || Supplement ijms-22-05630-s001.zip/ACPs(seguence).xlsx, sheet "D2" | column: Activity || Supplement ijms-22-05630-s001.zip/ACPs(seguence).xlsx, sheet "D3" | column: Activity || (+ 2 further places)

Setting [1] is: ACPs dataset D1, 1 = ACP (positive), 0 = non-ACP (negative), label taken from databases, ref CancerPPD [45] and SATPdb.
Setting [2] is: ACPs dataset D4 (sheet "D4"), label 1 = ACP, experimentally validated ACPs, ref CancerPPD [45] and SATPdb.
The mark [3] stands for this setting: ACPs dataset D5 (sheet "D5"), label 1 = ACP (positive set), sequences with CancerPPD/SATPdb ID, ref CancerPPD, SATPdb.
The mark [4] stands for this setting: ACPs dataset sheet D2, 1 = ACP (CancerPPD/SATPdb ID), 0 = non-ACP (Swissprot/PDB ID), ref CancerPPD, SATPdb, Swissprot (PDB).
Where [5] appears, read: ACPs dataset D3 (supplement sheet "D3"), 1 = ACP, 0 = non-ACP, ref CancerPPD [45] and SATPdb.
Where [6] appears, read: ACPs dataset D4 (sheet "D4"), label 1 = ACP (CancerPPD ID), 0 = non-ACP (non-anticancer AMP, SATPdb ID), ref CancerPPD [45] and SATPdb.
Where [7] appears, read: ACPs dataset D5 (sheet "D5"), label 1 = ACP (positive set), 0 = non-ACP (negative set), ref CancerPPD [45] and SATPdb.
[8] abbreviates: ACPs dataset D2 (supplement ACPs(seguence).xlsx, sheet D2), dataset label 1/0 (ACP / non-ACP), entries identified by Swissprot(PDB ID), ref CancerPPD/SATPdb/Swissprot(PDB).
Where [9] appears, read: ACPs dataset D5, sheet "D5", label 1 = ACP, 0 = non-ACP, ref CancerPPD [45] and SATPdb.
The mark [10] stands for this setting: ACPs dataset D1, label 1 = ACP, 0 = non-ACP (non-anticancer AMPs from SATPdb), ref CancerPPD/SATPdb.
[11] abbreviates: ACPs dataset D4 (sheet "D4"), label 1 = ACP, 0 = non-ACP, ref CancerPPD / SATPdb.
Setting [12] is: ACPs dataset D3 (sheet "D3"), label 1 = ACP, 0 = non-ACP, ref CancerPPD/SATPdb.

As to NGKQVCLDPEAPFLKKVIQKILDS [satpdb17154], the Activity by setting is: under setting [1], 1; under setting [2], 1; under setting [3], 1; under setting [4], 1.

Consider NGREACLDPEAPMVQKIVQKMLKG [satpdb14027], for which the Activity reads like this: under setting [1], 1; under setting [2], 1; under setting [3], 1; under setting [4], 1.

For NHFTLKCPKTALTEPPTLAY [compound 3362], the Activity under setting [1] is 1, the Activity under setting [2] is 1, the Activity under setting [3] was 1 and the Activity under setting [4] is 1.

Regarding NKWKKILGKIIKVVK [compound 3497], the Activity runs as follows: under setting [5], 1; under setting [6], 1; under setting [7], 1.

In the case of “NPEDWFTPDTCAYGDSNTAWTTCTTPGQTCYTCCSSCFDVVGEQACQMSAQC [2KC6 NMR - A 1-52]”, the Activity under setting [8] was 0 and the Activity under setting [9] is on record as 0.

On to “NVLLSPLSVATALSALSLGAEQRTES [satpdb18073]”, for which the Activity under setting [1] is 1, the Activity under setting [2] was 1, the Activity under setting [3] is given as 1 and the Activity under setting [4] is recorded as 1.

For the substance NVWKKILGKIIKVVK [compound 4347], the Activity under setting [5] is on record as 1, the Activity under setting [6] is recorded as 1 and the Activity under setting [7] was 1.

For “NYQWVPYQGRVPYPRGGLLkLLKklLKKLlKL [compound 3344]”, the Activity is, setting by setting: under setting [5], 1; under setting [6], 1; under setting [7], 1.

For PAARKAARWAWRMLKKGA [compound 1614], the Activity reads like this: under setting [1], 1; under setting [2], 1; under setting [3], 1; under setting [4], 1.

Consider PAWRKAFRAAWRMLKKAA [compound 1610], for which the Activity is, setting by setting: under setting [1], 1; under setting [2], 1; under setting [3], 1; under setting [4], 1.

For the substance PAWRKARRWARRMKKLAA [compound 1618], the Activity is reported as 1 under setting [1], 1 under setting [2], 1 under setting [3] and 1 under setting [4].

In the case of “PDEDAINDALNKVCSTGRRQRSICKQLLKK [compound 3108]”, the Activity under setting [1] is on record as 1, the Activity under setting [2] is recorded as 1, the Activity under setting [3] is 1 and the Activity under setting [4] is 1.

Turning to PEWFKCRRWQWRMKKLGA [compound 1604], the Activity runs as follows: under setting [1], 1; under setting [2], 1; under setting [3], 1; under setting [4], 1.

With PGLKGKRGDSGSPATWTTRG [satpdb10562], the Activity under setting [1] was 1, the Activity under setting [2] is reported as 1, the Activity under setting [3] is 1 and the Activity under setting [4] is on record as 1.

As for PIDERLRTCERLSYP [satpdb14897], the Activity under setting [1] is 1, the Activity under setting [2] was 1, the Activity under setting [3] was 1 and the Activity under setting [4] is 1.

Take “PIEVNDDCMACEACVEICPDVFEMNEEGDKAVVINPDSDLDCVEEAIDSCPAEAIVRS [1F2G;1FXD X-ray 1.70 A 1-58]”: the Activity was 0 under setting [8] and 0 under setting [9].

For the substance PKLlKTFlSKWIG [satpdb12561], the Activity is, setting by setting: under setting [10], 0; under setting [6], 0.

PLLQATLGGGS [compound 3726]: the Activity under setting [1] is reported as 1, the Activity under setting [2] was 1, the Activity under setting [3] is given as 1 and the Activity under setting [4] is reported as 1.

For PPPEE [compound 1426], the Activity is 1 under setting [5], 1 under setting [6] and 1 under setting [7].

As for PRAWEYWLRLME [compound 4582], the Activity by setting is: under setting [1], 1; under setting [2], 1; under setting [3], 1; under setting [4], 1.

As to PRFWEYWLRAME [compound 4586], the Activity under setting [1] is 1, the Activity under setting [2] is on record as 1, the Activity under setting [3] is on record as 1 and the Activity under setting [4] is listed as 1.

Turning to PRFWEYWLRLAE [compound 4587], the Activity reads like this: under setting [1], 1; under setting [2], 1; under setting [3], 1; under setting [4], 1.

For the substance “QCESGPCCRNCKFLKEGTICKRARGDDMDDYCNGKTCDCPRNPHKGPAT [1RO3 NMR - A 1-49]”, the Activity is 0 under setting [8] and 0 under setting [7].

Regarding QEPHRHSIFTPQTNPRADLEKN [satpdb11381], the Activity is, setting by setting: under setting [1], 1; under setting [2], 1; under setting [3], 1; under setting [4], 1.

For “QLGELIQQGGQKIVEKIQKIGQRIRDFFSNLRPRQEA [satpdb13050]”, the Activity is reported as 0 under setting [10] and 0 under setting [11].

“QLKKCWNNYVQGHCRKICRVNEVPEALCENGRYCCLNIKELEAC [satpdb10388]”: the Activity reads like this: under setting [1], 0; under setting [6], 0.

Consider QPWSQCSATCGDGVRERRR [satpdb12468], for which the Activity is 1 under setting [1], 1 under setting [2], 1 under setting [3] and 1 under setting [4].

Turning to “QRACPRILKK CRRDSDCPGE CICKENGYCG [2LJS NMR - A 1-30]”, the Activity reads like this: under setting [7], 0; under setting [4], 0.

In the case of RCRLAERRQIAK [satpdb18274], the Activity by setting is: under setting [1], 1; under setting [2], 1; under setting [3], 1; under setting [4], 1.

Take RCTCTTIISSSSTF [satpdb11144]: the Activity was 0 under setting [1] and 0 under setting [6].

With “RDCTSQSHKFVGLCLSDRNCASVCLTEYFTGGKCDHRRCVCTKGC [satpdb13162]”, the Activity is, setting by setting: under setting [10], 0; under setting [11], 0.

Regarding RGDLLRHVVKILEKYL [compound 1672], the Activity is recorded as 1 under setting [1], 1 under setting [2], 1 under setting [3] and 1 under setting [4].

For the substance “RGFRKHFNKLVKKVKHTISETAHVAKDTAVIAG [satpdb11665]”, the Activity was 0 under setting [5], 0 under setting [11] and 0 under setting [9].

RGGRLCYARRRFAVCVGR [satpdb14374]: the Activity under setting [12] was 0, the Activity under setting [11] is 0 and the Activity under setting [9] is listed as 0.

In the case of RGGRLCYCRRRFCVCVGR [compound 4251], the Activity under setting [5] is 1, the Activity under setting [6] is listed as 1 and the Activity under setting [7] is 1.

Consider RGGRLTYTRpRFTVTVGR [satpdb14856], for which the Activity reads like this: under setting [12], 0; under setting [11], 0; under setting [9], 0.

Turning to “RICPRIWMEC KRDSDCMAQC ICVDGHCG [1F2S X-ray 1.79 I 1-28]”, the Activity is, setting by setting: under setting [7], 0; under setting [4], 0.

“RLGDILQKAREKIEGGLKKLVQKIKDFFGKFAPRTES [satpdb11337]”: the Activity is 0 under setting [1] and 0 under setting [6].

Turning to “RLYRKVYGRLYRKVYGRLYRKVYGRLYRKVYGKKK [satpdb11459]”, the Activity by setting is: under setting [5], 0; under setting [11], 0; under setting [9], 0.

For the substance “RLYRRLYRRLYRRLYRRLYRRLYRRLYRRLYRKKKKKKK [satpdb14208]”, the Activity is on record as 0 under setting [12], 0 under setting [11] and 0 under setting [9].

On to RPFVEMYSEIPE [satpdb28120], for which the Activity by setting is: under setting [1], 1; under setting [2], 1; under setting [3], 1; under setting [4], 1.

Regarding RRPKGRGKRRREKQRPDAVPRR [satpdb18651], the Activity was 1 under setting [1], 1 under setting [2], 1 under setting [3] and 1 under setting [4].

As to “RRPKGRGKRRREKQRPTDCHLCGDAVPRR [satpdb17014]”, the Activity is, setting by setting: under setting [1], 1; under setting [2], 1; under setting [3], 1; under setting [4], 1.

RRWCFRVCYR GFCYRKCR [1RKK NMR - A 1-18]: the Activity under setting [7] is reported as 0 and the Activity under setting [4] was 0.
